The compounds below were run against T1, ACAT (acyl-coenzyme A cholesterol acyltransferase) (Oryctolagus cuniculus, UniProt G1SFD9) (assay: ACAT inhibition activity (rabbit small intestinal microsome fraction, [1-^14 C]oleyl coenzyme A)). Conditions: not given.
T1 construct: A rabbit small intestinal microsome fraction was prepared in the usual way; from tissue; host or cells: rabbit small intestine, microsome fraction
T1 sequence (G1SFD9 1-524): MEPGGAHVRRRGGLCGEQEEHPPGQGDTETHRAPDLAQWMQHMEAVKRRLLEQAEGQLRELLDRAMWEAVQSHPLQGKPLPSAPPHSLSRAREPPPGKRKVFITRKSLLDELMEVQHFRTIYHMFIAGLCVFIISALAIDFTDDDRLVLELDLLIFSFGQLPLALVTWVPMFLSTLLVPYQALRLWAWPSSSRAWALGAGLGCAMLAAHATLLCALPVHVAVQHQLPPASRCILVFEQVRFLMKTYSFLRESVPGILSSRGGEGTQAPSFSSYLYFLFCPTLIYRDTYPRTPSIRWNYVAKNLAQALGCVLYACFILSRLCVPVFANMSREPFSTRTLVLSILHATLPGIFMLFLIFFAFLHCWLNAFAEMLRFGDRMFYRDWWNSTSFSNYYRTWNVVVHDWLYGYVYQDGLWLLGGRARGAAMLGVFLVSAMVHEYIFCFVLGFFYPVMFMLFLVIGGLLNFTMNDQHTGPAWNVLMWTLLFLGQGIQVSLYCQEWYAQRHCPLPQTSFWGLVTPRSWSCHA
Type: biochemical
Description: (ACAT inhibition activity)
A rabbit small intestinal microsome fraction was prepared in the usual way, and the thus prepared microsome fraction was suspended in 0.04N potassiumphosphate buffer (pH 7.4) containing 0.1N sucrose, 0.03N ethylenediaminetetraacetic acid (EDTA) and 0.05N potassium chloride. Each of the drugs to be tested was dissolved in dimethyl sulfoxide.
The rabbit small intestinal microsome fraction suspension prepared above (250 μg as protein) and [1-^14 C]oleyl coenzyme A were added to 0.05N phosphate buffer (pH 7.4) containing 1% bovine serum albumin, followed by the addition of a drug to be tested with varied concentration,and the total volume was adjusted to 500 μl. The thus prepared mixture was incubated at 37° C. for 6 minutes, and the reaction was terminated by adding a mixture of chloroform and methanol (mixing ratio=2:1). After stirring, the resulting chloroform layer was collected and dried by concentration. […] A gel portion corresponding to cholesterol oleate was cut out and its radioactivity was measured using a liquid scintillation counter (LSC-3000, manufactured by Aroka Co., Ltd.). Samples obtained without using the drugs to be tested were also treated and measured in the same manner.
ACAT activity inhibition ratio (%)=(A-B)/B×100
A: ACAT activity when a drug to be tested is administered.
B: ACAT activity when a drug to be tested is not admistered.

SMILES | IC50
CCCCCCCCCCCCCCSCC(=O)Nc1c(C(C)C)cccc1C(C)C [Compound 1, N-(2,6-diisopropylphenyl)-2-(tetradecylthio)acetamide] | 1 to 10 nM

Same assay, conditions: rabbit small intestinal microsome fraction (250 μg as protein), 37° C., 6 minutes, pH 7.4, 1% bovine serum albumin; read-out: Activity (strength of the activity, IC50 value)

IC50 | SMILES
10 to 100 nM | CCCCCCCCCCCCSCC(=O)Nc1c(C(C)C)cccc1C(C)C [Compound 4, N-(2,6-diisopropylphenyl)-2-(dodecylthio)acetamide]
1 to 10 nM | CCCCCCCCCCCCCCCCCCSCC(=O)Nc1c(C(C)C)cccc1C(C)C [Compound 6, N-(2,6-diisopropylphenyl)-2-(octadecylthio)acetamide]
10 to 100 nM | CCCCCCCCCCCCCCCCSCC(=O)Nc1c(C(C)C)cccc1C(C)C [Compound 5, N-(2,6-diisopropylphenyl)-2-(hexadecylthio)acetamide]
10 to 100 nM | CCCCCCCCCCCCCCSC(C)(C)C(=O)Nc1c(C(C)C)cccc1C(C)C [Compound 9, N-(2,6-diisopropylphenyl)-2-methyl-2-(tetradecylthio)propanamide]
10 to 100 nM | CCCCCCCCCCCCCCCCS(=O)(=O)CC(=O)Nc1c(C(C)C)cccc1C(C)C [Compound 18, N-(2,6-diisopropylphenyl)-2-(hexadecylsulfonyl)acetamide]
1 to 10 nM | CCCCCCCCCCCCCCSCCCC(=O)Nc1c(C(C)C)cccc1C(C)C [Compound 10, N-(2,6-diisopropylphenyl)-4-(tetradecylthio)butanamide]
10 to 100 nM | CC(C)c1cccc(C(C)C)c1NC(=O)CSCc1ccc(C(C)(C)C)cc1 [Compound 8, N-(2,6-diisopropylphenyl)-2-(4-t-butylbenzylthio)acetamide]
1 to 10 nM | CCCCCCCCCCCCCCSCC(=O)Nc1c(C)cccc1C(C)(C)C [Compound 24, N-(2-methyl-6-t-butylphenyl)-2-(tetradecylthio)acetamide]
10 to 100 nM | CCCCCCCCCCCCCC[S+]([O-])CC(=O)Nc1c(C(C)C)cccc1C(C)C (stereo not shown) [Compound 13]
10 to 100 nM | CCCCCCCCCCCCCCS(=O)(=O)CC(=O)Nc1c(C(C)C)cccc1C(C)C [Compound 14, N-(2,6-diisopropylphenyl)-2-(tetradecylsulfonyl)acetamide]
10 to 100 nM | CCCCCCCCCCCCS(=O)(=O)CC(=O)Nc1c(C(C)C)cccc1C(C)C [Compound 17, N-(2,6-diisopropylphenyl)-2-(dodecylsulfonyl)acetamide]
1 to 10 nM | CCCCCCCCCCCCCCSCCC(=O)Nc1c(C(C)C)cccc1C(C)C [Compound 12, N-(2,6-diisopropylphenyl)-3-(tetradecylthio)propanamide]

— US5475130A, “Anilide derivative” (Taisho Pharmaceutical Co., Ltd., priority 1990, dated 1995)
